The text below walks through data of patent publication US20240383922A1, “KRAS Modulating Compounds” (Gilead Sciences, Inc., priority 2023, published 2024).

Like-named read-outs stand apart in the source and are kept apart here. Where only a bound is given, the exact number is not on record here.

Broadly, the EC50 is the midpoint of the concentration-response curve.

Assay [1] deals with cellular pERK in MIA-PaCa-2 (KRAS-G12C) cell-line. Description: Cell based pERK assay (HTRF), MIA-PaCa-2. The settings on record: MIA-PaCa-2 (KRAS-G12C) cells, 2 hours incubation, read-out: MIAPaCa2 pERK EC50. How it is done: (§1) Compounds were tested in a 384-well assay format for their ability to inhibit cellular pERK in Kuramochi (WT KRAS), MIA-PaCa-2 (KRAS-G12C), ASPC-1 (KRAS G12D), and NCI-H441 (KRAS-G12V) cell-lines. Compounds were serially diluted (1:3) in DMSO. On day −1, 80 uL of cells were plated per well in the 384 well tissue-culture plates (Greiner: Cat #781080) to seed 5000 cells per wells of AsPC-1 or 7500 cells of MIA-PaCa-2, NCI-H441, and Kuramochi cell lines in RPMI (Corning: Cat #10-040-CM) with 10% fetal bovine serum (FBS) (HyClone: Cat #SH30071-03) and 1× penicillin-streptomycin-glutamate (PSG) (Corning: Cat #30-009-CI) for […] and Kuramochi cell lines and DMEM (Corning: Cat #15-018-CM) with […] and 1× PSG for MKA-PaCa-2 cell line. The plates were then incubated overnight at 37° C. and 5% CO2. On day 0, 400 nL of compound/well was added into the cell plates and mixed 5 times by pipetting using a Beckmann Biomek FX. The cell plates were then incubated for 2 hours at 37° C. and 5% CO2. HTRF Advanced Phospho-ERK1/2 ([…]) Detection Kits (PerkinElmer: Cat #64AERPEG) were used to prepare the lysis and detection solution according to manufacturer protocol. Following the 2 hour incubation, 70 μL of medium was aspirated from the plates and 10 uL of lysis and detection solution was added to the plates using a Biotek EL406 washer and dispenser. Plates were sealed and stored overnight at room temperature. HTRF ratio (665 nm/615 nm) was read by Envision multimode reader (PerkinElmer) the next day. The TR-FRET ratios were normalized to a positive (saturating concentration of known inhibitor) and negative (DMSO) control and plotted against the log of compound concentration. IC50 values were defined as the compound concentration that causes a […] in normalized signal and were calculated using a sigmoidal dose-response model to generate curve fits.

Assay [2] concerns cellular pERK in NCI-H441 (KRAS-G12V) cell-line. Description: Cell based pERK assay (HTRF), NCI-H441. The settings on record: NCI-H441 (KRAS-G12V) cells, 2 hours incubation. How it is done:
as §1

Assay [3] has as its system cellular pERK in Kuramochi (WT KRAS) cell-line. Description: Cell based pERK assay (HTRF), Kuramochi. The settings on record: Kuramochi (WT KRAS) cells, 2 hours incubation. On the procedure:
as §1

Assay [4] deals with cellular pERK in ASPC-1 (KRAS G12D) cell-line. Description: Cell based pERK assay (HTRF), ASPC-1. The settings on record: ASPC-1 (KRAS G12D) cells, 2 hours incubation. How it is done: as §1

On to `C#Cc1c(F)ccc2cc(O)cc(-c3c(F)c4c5c(nc(OC[C@@]67CCCN6C[C@H](F)C7)nc5c3F)N3CCCOC[C@@H]3CC4)c12` (atropisomer, axis not shown) [Example 24-1, 4-((11S,14a5)-10,12-difluoro-8-(((2R,7a5)-2-fluorotetrahydro-1H-pyrrolizin-7a(5H1)-yl)methoxy)-1,4,5,13,14,14a-hexahydro-3H-[1,4]oxazepino[4′,3′:1,7]azepino[2,3,4-de]quinazolin-11-yl)-5-ethynyl-6-fluoronaphthalen-2-ol], for which the EC50 in assay [1] is 46.7 nM; in assay [2] it was 55.3 nM; in assay [3] it was 138 nM; in assay [4] (read-out: AsPC1 pERK EC50), 85 nM.

As for `C#Cc1c(F)ccc2cc(O)cc(-c3c(F)c4c5c(nc(OC[C@@]67CCCN6C[C@H](F)C7)nc5c3F)N3CCCOC[C@@H]3CC4)c12` (atropisomer, axis not shown) [Example 24-2, 4-((11R,14aS)-10,12-difluoro-8-(((2R,7aS)-2-fluorotetrahydro-1H-pyrrolizin-7a(5H)-yl)methoxy)-1,4,5,13,14,14a-hexahydro-3H-[1,4]oxazepino[4′,3′:1,7]azepino[2,3,4-de]quinazolin-11-yl)-5-ethynyl-6-fluoronaphthalen-2-ol], the EC50 in assay [1] came out at 0.82 nM; in assay [2], 8.01 nM; in assay [3] it was 2.64 nM; in assay [4] (read-out: AsPC1 pERK EC50) it was 1.69 nM.

For the compound `C#Cc1c(F)ccc2cc(N)cc(-c3c(F)c4c5c(nc(OC[C@@]67CCCN6C[C@H](F)C7)nc5c3F)N3CCCOC[C@@H]3CC4)c12` (atropisomer, axis not shown) [Example 25-1, 4-((11S,14aS)-10,12-difluoro-8-(((2R,7aS)-2-fluorotetrahydro-1H-pyrrolizin-7a(5H)-yl)methoxy)-1,4,5,13,14,14a-hexahydro-3H-[1,4]oxazepino[4′,3′:1,7]azepino[2,3,4-de]quinazolin-11-yl)-5-ethynyl-6-fluoronaphthalen-2-amine], the EC50 in assay [2], in assay [3] and in assay [4] (read-out: AsPC1 pERK EC50) was over 1000 nM in each case.

On to `C#Cc1c(F)ccc2cc(O)cc(-c3nc4c5c(nc(OC[C@@]67CCCN6C[C@H](F)C7)nc5c3F)N3CC(F)(F)COCC3CC4)c12` (mixture of isomers) [Example 6-17], for which the EC50 in assay [1] (Homo sapiens) was 0.7 nM; in assay [2] (Homo sapiens), 3.71 nM; in assay [4] (Homo sapiens, ASPC1), 10.6 nM.

For `C#Cc1c(F)ccc2cc(O)cc(-c3nc4c5c(nc(OC[C@@]67CCCN6C[C@H](F)C7)nc5c3F)N3CCCCCC3CC4)c12` (mixture of isomers) [Example 6-20], the EC50 in assay [1] (Homo sapiens) stood at 11 nM; in assay [2] (Homo sapiens), 86.2 nM; in assay [3] it was 9.39 nM; in assay [4] (Homo sapiens, ASPC1), 120 nM.

For the compound `C#Cc1c(F)ccc2cc(O)cc(-c3nc4c5c(nc(OC[C@@]67CCCN6C[C@H](F)C7)nc5c3F)N3CCOCC[C@H]3CC4)c12` (single isomer, unassigned) [Example 9-1], the EC50 in assay [1] (Homo sapiens) turned out to be 15.8 nM; in assay [2] (Homo sapiens) it was 101 nM; in assay [3], 46.9 nM; in assay [4] (Homo sapiens, ASPC1) it was 315 nM.

As for `C#Cc1c(F)ccc2cc(O)cc(-c3nc4c5c(nc(OC[C@@]67CCCN6C[C@H](F)C7)nc5c3F)N3CCOCC[C@H]3CCC4)c12` (single isomer, unassigned) [Example 10-1], the EC50 in assay [1] (Homo sapiens) turned out to be 18.4 nM; in assay [2] (Homo sapiens), 68.8 nM; in assay [3], 8.55 nM; in assay [4] (Homo sapiens, ASPC1) it was 208 nM.

As for `C#Cc1c(F)ccc2cc(O)cc(-c3nc4c5c(nc(OC[C@@]67CCCN6C[C@H](F)C7)nc5c3F)N3CCOCC[C@@H]3CCC4)c12` (single isomer, unassigned) [Example 10-2], the EC50 in assay [1] (Homo sapiens) is 248 nM; in assay [2] (Homo sapiens), over 1000 nM; in assay [3] it was 340 nM; in assay [4] (Homo sapiens, ASPC1), over 1000 nM.

For `C#Cc1c(F)ccc2cc(O)cc(-c3nc4c5c(nc(OC[C@@]67CCCN6C[C@H](F)C7)nc5c3F)N3CC(F)(F)COC[C@H]3CC4)c12` (single isomer, unassigned) [Example 17-1], the EC50 in assay [1] (Homo sapiens) worked out at 0.89 nM; in assay [2] (Homo sapiens), 7.68 nM; in assay [3], 2.95 nM; in assay [4] (Homo sapiens, ASPC1), 54.9 nM.

As for `C#Cc1c(F)ccc2cc(O)cc(-c3nc4c5c(nc(OC[C@@]67CCCN6C[C@H](F)C7)nc5c3F)N3CC(F)(F)COC[C@@H]3CC4)c12` (single isomer, unassigned) [Example 17-2], the concentration for a half-maximal effect (EC50) in assay [1] (Homo sapiens) stood at 1.3 nM; in assay [2] (Homo sapiens), 5.1 nM; in assay [3], 2.29 nM; in assay [4] (Homo sapiens, ASPC1), 10.8 nM.

As for `C#Cc1c(F)ccc2cc(N)cc(-c3c(F)c4c5c(nc(OC[C@@]67CCCN6C[C@H](F)C7)nc5c3F)N3CCCOC[C@@H]3CC4)c12` (single isomer, unassigned) [Example 25-2], the EC50 came to 92 nM in assay [2] and 67.2 nM in assay [4] (read-out: AsPC1 pERK EC50).

`C#Cc1c(F)ccc2cc(O)cc(-c3nc4c5c(nc(OC[C@@]67CCCN6C[C@H](F)C7)nc5c3F)N3CCCC[C@H]3CC4)c12` [Example 1-1, 5-ethynyl-6-fluoro-4-((S)-1-fluoro-11-(((2R,7aS)-2-fluorotetrahydro-1H-pyrrolizin-7a(5H)-yl)methoxy)-5,5a,6,7,8,9-hexahydro-4H-3,9a,10,12-tetraazabenzo[4,5]cyclohepta[1,2,3-de]naphthalen-2-yl)naphthalen-2-ol]: the EC50 in assay [1] turned out to be 12.6 nM; in assay [2] it was 14.7 nM; in assay [3], 3.89 nM; in assay [4] (read-out: AsPC1 pERK EC50), 25.1 nM.

On to `CCc1c(F)ccc2cc(O)cc(-c3nc4c5c(nc(OC[C@@]67CCCN6C[C@H](F)C7)nc5c3F)N3CCCC[C@H]3CC4)c12` [Example 2-1, 5-ethyl-6-fluoro-4-((S)-1-fluoro-11-(((2R,7aS)-2-fluorotetrahydro-1H-pyrrolizin-7a(5H)-yl)methoxy)-5,5a,6,7,8,9-hexahydro-4H-3,9a,10,12-tetraazabenzo[4,5]cyclohepta[1,2,3-de]naphthalen-2-yl)naphthalen-2-ol], for which the EC50 stood at 54.9 nM in assay [1], 74.6 nM in assay [2], 24.7 nM in assay [3] and 114 nM in assay [4] (read-out: AsPC1 pERK EC50).

As for `C#Cc1c(F)ccc2cc(N)cc(-c3cc4c5c(nc(OC[C@@]67CCCN6C[C@H](F)C7)nc5c3F)N3CCCOCC3CC4)c12` (stereo partly shown) [Example 3-2], the EC50 stood at 87.7 nM in assay [1] (Homo sapiens); 104 nM in assay [2] (Homo sapiens); 46.5 nM in assay [3]; 288 nM in assay [4] (Homo sapiens, ASPC1).

Turning to `C#Cc1c(F)ccc2cc(N)cc(-c3nc4c5c(nc(OC[C@@]67CCCN6C[C@H](F)C7)nc5c3F)N3CCCOC[C@@H]3C=C4C)c12` [Example 7-7], the EC50 in assay [1] (Homo sapiens) stood at 1.97 nM; in assay [2] (Homo sapiens), 4.01 nM; in assay [4] (Homo sapiens, ASPC1), 8.61 nM.

For `Cc1c(F)c(N)cc(-c2nc3c4c(nc(OC[C@@]56CCCN5C[C@H](F)C6)nc4c2F)N2CCCOC[C@@H]2CC3)c1C(F)(F)F` [Example 7-11], the EC50 in assay [2] (Homo sapiens) was 724 nM; in assay [3], 188 nM; in assay [4] (Homo sapiens, ASPC1) it was over 1000 nM.

`CCc1c(F)c(F)cc2cc(N)cc(-c3nc4c5c(nc(OCC67CCCN6CCC7)nc5c3F)N3CCCOC[C@@H]3CC4)c12` [Example 8-4]: the EC50 is over 1000 nM in assay [2] (Homo sapiens); 128 nM in assay [3]; over 1000 nM in assay [4] (Homo sapiens, ASPC1).

`C#Cc1c(F)ccc2cc(N)cc(-c3nc4c5c(nc(OC[C@@]67CCCN6[C@H](COC(=O)N(C)C)CC7)nc5c3F)N3CCCOC[C@@H]3CC4)c12` [Example 23-4]: the EC50 in assay [2] (Homo sapiens) is 57 nM; in assay [3], 4.1 nM; in assay [4] (Homo sapiens, ASPC1), 78 nM.
